{
  "source": "patent US20230103549A1",
  "about": "“OVERLAPPING THERAPEUTIC STRATEGIES FOR CYSTINOSIS TREATMENT AND COSMETIC SKIN DARKENING” (Whitehead Institute for Biomedical Research, priority 2019, published 2023)",
  "key": {"[1]": {"molecular_target": "T1, plasma membrane-localized MFSD12 (Homo sapiens, UniProt Q6NUT3, DEL167-169/L256A/L257A/Y182H)", "T1 construct": "expressed in transfected cells; host or cells: HEK-293T cells transiently transfected with the pRK5-HA-MFSD12 LL253-254AA plasmid (PEI)", "T1 sequence (Q6NUT3 with tags, fused parts or gaps DEL167-169/Y182H/L256A/L257A)": "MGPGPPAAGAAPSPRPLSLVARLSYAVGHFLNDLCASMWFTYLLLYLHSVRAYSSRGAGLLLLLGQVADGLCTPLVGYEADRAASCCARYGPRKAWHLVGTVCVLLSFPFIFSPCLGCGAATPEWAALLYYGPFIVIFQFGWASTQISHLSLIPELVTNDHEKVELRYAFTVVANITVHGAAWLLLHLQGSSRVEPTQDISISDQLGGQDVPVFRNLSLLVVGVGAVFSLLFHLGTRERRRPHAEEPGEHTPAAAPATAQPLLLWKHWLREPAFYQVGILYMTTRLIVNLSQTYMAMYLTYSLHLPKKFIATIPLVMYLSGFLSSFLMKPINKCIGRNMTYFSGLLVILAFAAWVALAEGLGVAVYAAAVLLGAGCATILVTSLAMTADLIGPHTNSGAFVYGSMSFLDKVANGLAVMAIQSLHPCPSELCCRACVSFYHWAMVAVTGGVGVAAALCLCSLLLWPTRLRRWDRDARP", "assay": "Plasma membrane cellular cysteine uptake assay (MFSD12^PM)", "type": "cell-based", "conditions": "HEK-293T cells expressing MFSD12^PM; 500 μM cold cysteine for competition", "method": "3 million HEK-293T cells were plated in 10 cm dishes. Cells were transfected with 3 μg of plasmid with PEI (3 μg per 1 μg plasmid) and scraped 48 hours post-transfection into ice cold KPBS. After washing twice, cells were resuspended in LysoBuffer supplemented with 2.5 μM Erastin (MilliporeSigma), 4 mM leucine, and 3 mM serine. Assays were started with the addition of cold cysteine (10 μM for transport conditions and 500 μM for competition) and 50 μCi/mL (<100 pM) [^35S]-cysteine. Samples were incubated at 30° C. and aliquots were taken at indicated time points. Aliquoted cells were harvested by centrifugation at 1,000×g for 30 seconds at 4° C. and washed twice in ice-cold PBS. Cell pellets were resuspended in water before mixing into scintillation fluid and measuring scintillation counts (TriCarb T9000TR, Perkin-Elmer)."}, "[2]": {"molecular_target": "T2, MFSD12 (Homo sapiens, UniProt Q6NUT3)", "T2 construct": "isolate large quantities of lysosomes from wild-type and MFSD12 knock-out HEK-293T cells; endogenous in cells; host or cells: suspension-adapted HEK-293T cells; lysosomes purified by differential and OptiPrep gradient centrifugation", "T2 sequence (Q6NUT3 whole entry)": "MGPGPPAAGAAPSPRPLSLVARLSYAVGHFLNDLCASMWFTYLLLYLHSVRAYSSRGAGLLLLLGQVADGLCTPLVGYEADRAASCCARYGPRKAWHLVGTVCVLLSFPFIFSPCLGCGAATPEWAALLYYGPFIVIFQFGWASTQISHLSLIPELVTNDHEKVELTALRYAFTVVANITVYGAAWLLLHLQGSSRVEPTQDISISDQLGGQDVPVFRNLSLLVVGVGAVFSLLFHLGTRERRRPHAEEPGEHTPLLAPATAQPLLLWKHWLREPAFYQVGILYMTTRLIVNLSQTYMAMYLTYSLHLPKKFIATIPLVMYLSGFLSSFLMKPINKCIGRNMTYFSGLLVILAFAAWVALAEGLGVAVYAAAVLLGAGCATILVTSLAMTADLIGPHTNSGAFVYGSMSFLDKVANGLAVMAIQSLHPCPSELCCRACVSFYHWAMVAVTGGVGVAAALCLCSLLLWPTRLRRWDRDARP", "assay": "Cysteine uptake assay into isolated lysosomes", "type": "biochemical", "conditions": "500 μM unlabeled cysteine; lysosomes from HEK-293T cells; 15-minute transport assay", "method": "Lysosomal purification protocols were adapted from previous protocols (Graham, 2001). 500 million suspension-adapted HEK-293T cells were spun down, washed in ice-cold PBS, and resuspended in 15 mL homogenization buffer (250 mM sucrose; 20 mM HEPES, pH 7.4; 1 mM EDTA) supplemented with protease inhibitor tablets (Roche). Cells were dounced 10 times in a lose fitting glass dounce and the resulting lysate was centrifuged at 1,500×g for 10 minutes at 4° C. After transferring the supernatant, 15 mL homogenization buffer was used to resuspend the pellet, and douncing and centrifugation were repeated. Supernatants from three successive rounds of homogenization and centrifugation were pooled and centrifuged a final time before transferring ‘post-nuclear supernatant’ to the subsequent step. ‘Post-nuclear supernatant’ was centrifuged at 20,000×g for 10 minutes at 4° C. to pellet organelles. To further wash organelles, the pellet was resuspended in 45 mL homogenization buffer and spun again at 20,000×g for 10 minutes at 4° C. The resulting pellet or ‘light mitochondrial fraction’ was resuspended in 9% OptiPrep (Thermo Fisher) prepared in Dilution Buffer (250 mM sucrose; 40 mM HEPES, pH 7.4; 2 mM EDTA) and overlaid on top of a discontinuous gradient of 18, 16, 14, 12, and 10% OptiPrep prepared in Dilution Buffer. […]"}},
  "data": [
    {"smiles": "N[C@@H](CS)C(=O)O", "note": "[cysteine]", "values": [
      {"measurement": "competition of MFSD12-induced [35S]-cysteine transport", "setting": "[1]", "result": "completely competed"},
      {"measurement": "competition of [35S]-cysteine signal in lysosomes", "setting": "[2]", "result": "reduce the [^35S] signal in lysosomes having MFSD12 to the same level as those in lysosomes lacking it"}
    ]}
  ]
}
